In PubChem BioAssay (NCI) one finds TGI and GI50 data, which are given here for ten compounds.

Each structure is given as a SMILES string.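 Dose response: 5 concentrations. Exposure: 48 h. Format: 96-well plates. Endpoint: linear interpolation; highest concentration if not reached. The concentration for 50% growth inhibition is given as GI50. TGI denotes the concentration required for complete inhibition of growth.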 Where only a bound is given, the exact number is not on record here.

Test systems include BT-549 breast; CAKI-1 renal; CCRF-CEM leukemia; COLO 205 colon; HCC-2998 colon; IGROV1 ovarian; OVCAR-8 ovarian; SK-MEL-28 melanoma; TK-10 renal; U251 CNS.
Holding throughout (experiment): DTP human tumour cell line panel, 48 h

Usually TGI stands for the concentration giving total growth inhibition. Consider `O=C(OCC(OC(=O)c1ccccc1)C(OC(=O)c1ccccc1)C(OC(=O)c1ccccc1)c1cnn(-c2ccccc2)n1)c1ccccc1` (stereo unspecified), for which the TGI in the test on BT-549 breast, with CAKI-1 renal, with CCRF-CEM leukemia, in the test with COLO 205 colon, with HCC-2998 colon and with IGROV1 ovarian was over 100 µM throughout. Moreover, the TGI in the test on OVCAR-8 ovarian, in the test on SK-MEL-28 melanoma and in the test on TK-10 renal was over 100 µM each time.
As usually defined, the GI50 is the concentration that inhibits growth by half. Consider `CCN(CC)c1cc2oc3cc(N)cc(=N)c-3nc2cc1C`, for which the GI50 was 10.6 µM with BT-549 breast; 1.65 µM in the test on CAKI-1 renal; 1.9 µM in the test on COLO 205 colon; 10 µM with HCC-2998 colon; 3.03 µM in the test on IGROV1 ovarian; 2.77 µM with OVCAR-8 ovarian. Besides, the GI50 was 5.7 µM with SK-MEL-28 melanoma, 4.9 µM in the test with TK-10 renal and 3.13 µM in the test with U251 CNS. Also, the TGI is 27.4 µM in the test with BT-549 breast; 6.78 µM in the test with CAKI-1 renal; 3.95 µM with COLO 205 colon; 81.2 µM in the test on HCC-2998 colon; 14.3 µM in the test with IGROV1 ovarian; over 100 µM in the test with OVCAR-8 ovarian. Besides, the TGI in the test with SK-MEL-28 melanoma was determined as 27 µM; in the test on TK-10 renal, 23.1 µM; with U251 CNS, 14.7 µM.
For `Cn1cc(-c2ccc(-c3cncc(Cl)c3N3CCC4(CCNC4=O)CC3)cc2)cn1`, the GI50 in the test with BT-549 breast is 26 µM; in the test with CCRF-CEM leukemia, 44.5 µM; in the test on COLO 205 colon it was 10.6 µM; with HCC-2998 colon it was over 100 µM; with IGROV1 ovarian it was 68 µM; in the test with OVCAR-8 ovarian, 29.4 µM. The GI50 was 79.2 µM with SK-MEL-28 melanoma and 51.3 µM with U251 CNS. The TGI in the test on BT-549 breast, in the test on CCRF-CEM leukemia, in the test on COLO 205 colon, in the test on HCC-2998 colon, in the test on IGROV1 ovarian and in the test with OVCAR-8 ovarian was over 100 µM throughout. In addition, the TGI in the test on SK-MEL-28 melanoma and in the test with U251 CNS was over 100 µM each time.
Consider `Nc1nc(N)c2cc(CNc3ccc(C(=O)NC(CC(=O)O)C(=O)O)c(Cl)c3)ccc2n1` (stereo unspecified), for which the GI50 was over 500 µM in the test on BT-549 breast; 0.05 µM in the test with CAKI-1 renal; 0.05 µM in the test with CCRF-CEM leukemia; 0.462 µM in the test on COLO 205 colon; 223 µM with IGROV1 ovarian; 0.05 µM with OVCAR-8 ovarian. Further, the GI50 with TK-10 renal is over 500 µM. Moreover, the TGI in the test on BT-549 breast was over 500 µM; in the test with CAKI-1 renal it was over 500 µM; with CCRF-CEM leukemia it was over 500 µM; in the test on COLO 205 colon it was over 500 µM; in the test on HCC-2998 colon, over 77.5 µM; with IGROV1 ovarian, over 500 µM. In addition, the TGI was over 500 µM in the test on OVCAR-8 ovarian, over 4.64 µM in the test with SK-MEL-28 melanoma and over 500 µM with TK-10 renal.
With `CC[C@@]1(O)C(=O)OCc2c1cc1n(c2=O)Cc2c-1nc1cc(F)c(C)c3c1c2[C@@H](N)CC3`, the GI50 in the test with BT-549 breast is under 0.01 µM; in the test on CAKI-1 renal, under 0.01 µM; with CCRF-CEM leukemia it was under 0.01 µM; in the test with COLO 205 colon it was 0.0265 µM; in the test with HCC-2998 colon, 0.0314 µM; in the test on IGROV1 ovarian, 0.0162 µM. The GI50 in the test with OVCAR-8 ovarian was under 0.01 µM; in the test with TK-10 renal, 0.0725 µM; in the test on U251 CNS it was under 0.01 µM. Further, the TGI is 0.199 µM in the test on BT-549 breast; 0.101 µM in the test on CAKI-1 renal; over 100 µM in the test with CCRF-CEM leukemia; 0.837 µM in the test on COLO 205 colon; 0.665 µM in the test with HCC-2998 colon; 1.59 µM with IGROV1 ovarian. Also, the TGI in the test on OVCAR-8 ovarian and with U251 CNS was over 100 µM throughout.
As to `CO/N=C(/C)c1cccc(Nc2cc(-c3ccccc3)nc3ccc(OC)cc23)c1`, the GI50 is 22.4 µM in the test on BT-549 breast; 3.18 µM in the test on CAKI-1 renal; 33.1 µM with COLO 205 colon; 4.97 µM in the test with HCC-2998 colon; 26.2 µM with IGROV1 ovarian; 28.6 µM in the test with SK-MEL-28 melanoma. Besides, the GI50 with TK-10 renal was 3.32 µM; with U251 CNS it was 6.62 µM. The TGI in the test on BT-549 breast is 46.6 µM; with CAKI-1 renal, 10.9 µM; in the test on COLO 205 colon, 97.8 µM; in the test on HCC-2998 colon, 20.8 µM; in the test with IGROV1 ovarian it was over 100 µM; in the test with SK-MEL-28 melanoma it was 66.8 µM. The TGI in the test on TK-10 renal worked out at 12.8 µM; in the test with U251 CNS it was 23.7 µM.
For the compound `O=C1CSC(c2ccc(-c3nc4ccccc4s3)cc2)=N1`, the GI50 is 36.2 µM in the test on BT-549 breast; 17.4 µM in the test with CAKI-1 renal; over 100 µM in the test on COLO 205 colon; 25.9 µM with HCC-2998 colon; 50.5 µM in the test on IGROV1 ovarian; 11.1 µM with OVCAR-8 ovarian. In addition, the values for the GI50 with SK-MEL-28 melanoma, in the test on TK-10 renal and in the test on U251 CNS were 87.2 µM, 17.5 µM and 28 µM, respectively. The TGI in the test on BT-549 breast is 76.8 µM; in the test with CAKI-1 renal, over 100 µM; with COLO 205 colon it was over 100 µM; in the test on HCC-2998 colon, 78.5 µM; with IGROV1 ovarian it was over 100 µM; with OVCAR-8 ovarian, over 100 µM. Further, the TGI with SK-MEL-28 melanoma was over 100 µM; in the test on TK-10 renal, 65.1 µM; in the test with U251 CNS, over 100 µM.
With `CCC(=O)Nc1ccc(N=NN(C)C)cc1`, the concentration for total growth inhibition (TGI) in the test with BT-549 breast is over 100 µM; in the test on COLO 205 colon, over 100 µM; with HCC-2998 colon, 6.64 µM; in the test on OVCAR-8 ovarian, over 100 µM; with SK-MEL-28 melanoma, over 100 µM; with U251 CNS, over 100 µM.
Take `Cc1ccc(Nc2nnc(-c3ccc4c(c3)OCO4)o2)c(C)c1`: the TGI in the test on BT-549 breast, with CAKI-1 renal, in the test on COLO 205 colon, in the test with HCC-2998 colon, in the test on IGROV1 ovarian and with OVCAR-8 ovarian was over 100 µM in each case. The TGI in the test on SK-MEL-28 melanoma, with TK-10 renal and in the test on U251 CNS was over 100 µM throughout.
Consider `C=C1CC[C@@H](C(C)C)C[C@@H]2[C@H]([C@H](O)C[C@]2(C)O)[C@@]2(C)CC[C@@H]1O2`, for which the GI50 was 27.6 µM with BT-549 breast; 0.792 µM in the test with CAKI-1 renal; 20 µM with COLO 205 colon; 13.9 µM in the test with HCC-2998 colon; 17.2 µM in the test on IGROV1 ovarian; 21.4 µM with OVCAR-8 ovarian. The GI50 in the test with TK-10 renal was 21.7 µM; with U251 CNS it was 16.9 µM. In addition, the TGI came to 55.1 µM in the test with BT-549 breast; 18.7 µM in the test with CAKI-1 renal; 34.9 µM in the test on COLO 205 colon; 26.9 µM in the test on HCC-2998 colon; 33.4 µM in the test on IGROV1 ovarian; 46.4 µM with OVCAR-8 ovarian. The values for the TGI in the test with TK-10 renal and in the test with U251 CNS were 43.7 µM and 30.5 µM, respectively.
